Test results reported in article PMC11272598, “RG7774 (Vicasinabin), an orally bioavailable cannabinoid receptor 2 (CB2R) agonist, decreases retinal vascular permeability, leukocyte adhesion, and ocular inflammation in animal models” (Frontiers in Pharmacology, 2024).
Values after ≈ are worked out from the molar mass of the structure shown.

How the values were obtained:
[1] = molecular target: T1, human CB2R (Homo sapiens, UniProt P34972); test: PathHunter β-arrestin recruitment assay in CHO cells; assay type: cell-based
T1 construct: bgal (beta-galactosidase fragment of the PathHunter system); host or cells: CHO-K1
Protocol: Assays were carried out using the PathHunter hCB2_bgal CHOK1 β-arrestin recruitment assay kit (DiscoveRx, Fremont, CA, United States) as previously described ([Soethoudt et al., 2017]). A total of 5,000 cells per well were seeded in 384-well plates (PerkinElmer, Waltham, MA, United States) containing 20 μL cell culture medium and incubated for 16–18 h at 37°C in 5% CO2. Cells were stimulated with RG7774 and incubated for 1.5 h at 37°C in 5% CO2. As the RG7774 stock solution was 100% DMSO, the final concentration of DMSO per assay point was diluted to 0.1%. PathHunter Detection mixture was used to determine β-galactosidase enzyme activity according to the manufacturer’s protocol. Detection mixture (12 µL per well) was added, and the plate was incubated for 1 h in the dark at RT. Chemiluminescence (indicated as relative light units) was measured on an EnVision multilabel plate reader (PerkinElmer, Waltham, MA, United States).

[2] = molecular target: T2, endogenous CB2R (Homo sapiens, UniProt P34972); test: Forskolin-stimulated cAMP in Jurkat cells; assay type: cell-based; conditions: data not shown
T2 construct: endogenous CB2R in human Jurkat cells; endogenous in cells; host or cells: Jurkat cells

[3] = molecular target: T1, human CB2R; test: Competition binding, [^3H]-CP55940, CHO cell membranes; conditions: competition binding assays
Protocol: Competition and saturation binding assays were performed using the radiolabeled CB1R/CB2R agonist [^3H]-CP55940 (PerkinElmer, Waltham, MA, United States) in recombinant cell systems, and the newly developed CB2R-selective agonist [^3H]-RO6753361 ([Chicca et al., 2024]) in cells expressing endogenous CB1R/CB2R. Competition assays were conducted by incubating 5, 40, or 40 µg of membrane protein from CHO cells, Jurkat cells or spleen cells, respectively, with 1.5 nM [^3H]-CP55940 or 1.5 nM [^3H]-RO6753361 in the presence or absence of increasing concentrations of ligand (RG7774 or control) for 2 h at 30°C in a final volume of 0.2 mL of assay buffer (50 mmol/L Tris-HCl, 5 mmol/L MgCl2, 2.5 mmol/L EDTA, and 0.5% fatty acid-free BSA [pH 7.4] and 1% DMSO), with gentle shaking. Saturation binding assays were conducted by incubating 1–3 μg, 40 μg, or 30–40 μg of membrane protein from CHO cells, Jurkat cells, or spleen tissue, respectively, with 12 concentrations in the range of 80–0.039 nM [^3H]-CP55940 or [^3H]-RO6753361 for 2 h at 30°C in a final volume of 0.2 mL/well of assay buffer without DMSO. […] IC50 values and Hill slopes were determined with a 4-parameter logistic model using ActivityBase (ID Business Solution, Guilford, United Kingdom) and pKi values were determined using the Cheng-Prusoff equation ([Cheng and Prusoff, 1973]).

[4] = Kinetic lyophilization solubility assay (LYSA); assay type: physicochemical; conditions: aqueous buffer, 0.05 M PBS pH 6.5
Protocol: RG7774 samples were prepared in duplicate from 10 mM DMSO stock solutions. DMSO was evaporated for 1 h using a centrifugal vacuum evaporator (Genevac Technologies, UK) and the residue was dissolved in 0.05 M PBS (pH 6.5), stirred for 1 h, and shaken for 2 h. Solutions were filtered 12 h later using a microtiter filter plate (MSDV N65; Merck Millipore, MA, USA). The filtrate and its 1:10 dilution were analyzed by direct ultraviolet (UV) measurement or high-performance liquid chromatography with UV spectroscopy (HPLC-UV). […] The measurement range for a compound with molecular weight 500 was 0 to 666 μg/mL.

[5] = molecular target: T3, Human 5-LOX (Homo sapiens, UniProt P09917); test: Human 5-LOX assay; assay type: biochemical; conditions: RG7774 10 µM; read-out: Mean ± SEM % inhibition of control, Human 5-LOX
T3 construct: purchased Cayman Chemical Company #60402
Protocol: The inhibitory effects of different concentrations of RG7774 (0.1-500 µM) on the activities of human recombinant 5-LOX (Cayman Chemical Company #60402), 15-LOX (Cayman Chemical Company #10011263), and human platelet-derived 12-LOX were determined using the Biovision Lipoxygenase Activity Assay Kit (#BVN-K978-100). This kit converts the LOX substrate to an intermediate that reacted with the probe, generating a fluorescent product. The effect of RG7774 (preincubated for 15 min) at 10 µM on LOXs (5-LOX: 0.5 or 1.2 µg; 12-LOX: 20 µg; 15-LOX: 0.23 or 0.3 µg) was ascertained by adding the compounds directly to the incubation medium and the fluorescent signal, recorded at excitation/emission 500/536 nm at 30 sec intervals for 30-40 min, was directly proportional to LOX activity. […] The percentage of human 5-, 12-, and 15-LOX activity (control) was estimated from the amount of oxidized probe in the reaction using a standard curve.

[6] = Parallel artificial membrane permeability assay (PAMPA); assay type: physicochemical
Protocol: A 96-well microtiter plate was filled with aqueous buffer (typically 0.05 M Tris, pH 7.4, or 0.05 M phosphate, pH 6.5) and covered with a filter plate in a sandwich construction. The hydrophobic filter material (Durapore/Millipore; pore size 0.22–0.45 μm) covering the first 48 wells (sample) was impregnated with 1%–20% lecithin dissolved in dodecane, hexadecane, and 1,9-decadiene. The filter cover for the remaining 48 wells (reference) was wetted with 4–5 μL of a 50% (v/v) methanol/buffer solution. The transfer of RG7774 and reference substances from the donor compartment, through the lipid-infused artificial membrane, into the acceptor compartment was initiated by transferring 100–200 μL of a 250 or 500 μM stock solution to filter plates covering the sample and reference wells, respectively. The maximum DMSO content of the stock solutions was 5%. The permeation coefficient (Peff) was determined as previously described by Kansy et al. 1998 [3].

T1 sequence (P34972 whole entry, the tested form may be a part): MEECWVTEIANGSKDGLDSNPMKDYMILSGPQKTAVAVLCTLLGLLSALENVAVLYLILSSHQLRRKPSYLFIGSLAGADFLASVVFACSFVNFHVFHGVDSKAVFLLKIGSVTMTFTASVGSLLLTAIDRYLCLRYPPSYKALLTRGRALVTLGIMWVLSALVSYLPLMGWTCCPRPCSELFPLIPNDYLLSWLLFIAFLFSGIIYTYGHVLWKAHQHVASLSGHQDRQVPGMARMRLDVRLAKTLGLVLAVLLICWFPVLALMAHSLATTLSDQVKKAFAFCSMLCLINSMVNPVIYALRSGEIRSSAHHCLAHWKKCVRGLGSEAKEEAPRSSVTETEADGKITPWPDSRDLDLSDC
T3 sequence (P09917 whole entry): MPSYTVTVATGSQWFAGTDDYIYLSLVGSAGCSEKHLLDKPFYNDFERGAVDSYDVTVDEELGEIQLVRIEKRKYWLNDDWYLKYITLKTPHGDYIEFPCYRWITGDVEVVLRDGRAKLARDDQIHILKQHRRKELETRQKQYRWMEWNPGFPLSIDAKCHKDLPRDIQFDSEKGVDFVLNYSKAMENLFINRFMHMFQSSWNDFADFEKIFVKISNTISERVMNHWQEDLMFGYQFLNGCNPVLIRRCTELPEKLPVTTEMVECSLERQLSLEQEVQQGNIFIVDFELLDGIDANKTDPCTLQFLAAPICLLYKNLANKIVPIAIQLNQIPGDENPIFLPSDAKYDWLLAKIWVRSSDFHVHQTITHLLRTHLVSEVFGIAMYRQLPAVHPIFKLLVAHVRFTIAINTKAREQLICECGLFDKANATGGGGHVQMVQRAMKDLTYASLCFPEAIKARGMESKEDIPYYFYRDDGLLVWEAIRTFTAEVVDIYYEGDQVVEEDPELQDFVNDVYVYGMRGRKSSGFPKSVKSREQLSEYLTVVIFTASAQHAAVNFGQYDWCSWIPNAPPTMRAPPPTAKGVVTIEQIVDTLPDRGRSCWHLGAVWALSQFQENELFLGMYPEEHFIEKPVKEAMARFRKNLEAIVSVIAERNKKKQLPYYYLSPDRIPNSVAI
T2 sequence (P34972 whole entry): as the sequence (P34972 whole entry, the tested form may be a part) above

SMILES: Cn1nnnc1Cn1nnc2c(N3CC[C@H](O)C3)nc(C(C)(C)C)nc21 [RG7774, (S)-1-(5-tert-butyl-3-[(1-methyl-1H-tetrazol-5-yl)methyl]-3H-[1,2,3]triazolo[4,5-d]pyrimidin-7-yl)pyrrolidin-3-ol]
- EC50 [1]: 99.7 ± 5.72 nM
- inhibition of forskolin-stimulated intracellular cAMP levels in Jurkat cells [2]: did not inhibit
- binding selectivity for recombinant human CB2R over CB1R [3]: > 195 fold
- solubility kinetic [4]: 285 µg/mL (≈ 795 µM)
- inhibition at 10 µM [5]: -20.5%
- PAMPA P eff [6]: 9.7 10^−6 cm s^−1
- PAMPA acceptor compartment [6]: 23%
- PAMPA donor compartment [6]: 59%
- PAMPA membrane [6]: 18%
